Source: patent US20250084074A1, “SUBSTITUTED HETEROCYCLES AS HSET INHIBITORS” (MERCK PATENT GMBH, priority 2022, published 2025)
Where a name gives a salt, the structure may show the parent alone.

What follows are molecules tested against HSET full length protein (Homo sapiens (Human), UniProt Q9BW19) (assay: HSET ADP-Glo Assay S - 3 μM ATP). Conditions: 5 nM HSET, 70 μg/mL microtubule, 80 min at rt, read-out: COMBINED HSET ADP GLO IC50.
Chain of HSET full length protein (Q9BW19 whole entry): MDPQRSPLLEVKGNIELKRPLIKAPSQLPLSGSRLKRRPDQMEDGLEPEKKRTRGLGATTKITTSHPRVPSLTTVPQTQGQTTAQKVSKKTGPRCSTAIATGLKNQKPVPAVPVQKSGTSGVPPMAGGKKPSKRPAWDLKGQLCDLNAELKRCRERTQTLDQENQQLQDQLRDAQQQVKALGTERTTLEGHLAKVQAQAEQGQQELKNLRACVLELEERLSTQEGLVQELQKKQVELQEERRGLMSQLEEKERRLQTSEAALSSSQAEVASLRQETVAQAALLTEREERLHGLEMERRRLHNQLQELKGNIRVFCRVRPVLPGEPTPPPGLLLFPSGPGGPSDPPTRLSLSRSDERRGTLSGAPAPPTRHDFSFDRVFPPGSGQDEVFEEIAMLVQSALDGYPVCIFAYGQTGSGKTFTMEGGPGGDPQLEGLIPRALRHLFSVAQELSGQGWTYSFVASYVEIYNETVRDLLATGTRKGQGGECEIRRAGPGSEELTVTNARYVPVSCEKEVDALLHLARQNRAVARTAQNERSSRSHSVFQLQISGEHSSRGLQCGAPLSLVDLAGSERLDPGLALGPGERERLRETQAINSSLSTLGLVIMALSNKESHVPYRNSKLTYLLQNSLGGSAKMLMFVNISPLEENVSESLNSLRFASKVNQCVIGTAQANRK
Type: biochemical
In short: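 ADP-Glo luminescence read-out: ATPase reaction at 3 μM ATP, 80 min at room temperature, after a 10 min compound preincubation. Enzyme was full-length human HSET at 5 nM, stimulated by 70 μg/mL paclitaxel-stabilised bovine microtubules in HEPES pH 6.8 buffer with MgCl2, EGTA, Triton X-100 and DTT.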
`CCOC(=O)n1cc(NC(=O)[C@@H](O)CNC(=O)c2cccc(-c3cnn(C)c3)c2)nc1C` [Example 271] showed an IC50 of 4000 nM. `CCCOC(=O)c1sc(NC(=O)CCNC(=O)c2cc(C#N)cc(C(=O)OC)c2)nc1C` [Example 30, Propyl 2-(3-(3-cyano-5-(methoxycarbonyl)benzamido)propanamido)-4-methylthiazole-5-carboxylate] was tested, and the IC50 was 186 nM. Work on `CCOC(=O)c1sc(NC(=O)CCNC(=O)c2cccc(-c3nnc(C)o3)c2)nc1C` [Example 37, Ethyl 4-methyl-2-(3-(3-(5-methyl-1,3,4-oxadiazol-2-yl)benzamido)propanamido)thiazole-5-carboxylate] yielded an IC50 of 260 nM. In the case of `Cc1nc(NC(=O)[C@H]2C[C@@H](NC(=O)c3cccc(-c4nnn(C)n4)c3)C2)sc1C(=O)OC(C)(C)C` [Example 107, tert-Butyl-4-methyl-2-((1s,3s)-3-(3-(2-methyl-2H-tetrazol-5-yl)benzamido)cyclobutane-1-carboxamido)thiazole-5-carboxylate], the IC50 is reported as 41 nM. `CCCOC(=O)c1sc(C(=O)NCCNc2nccc3ccc(-c4noc(C)n4)cc23)nc1C` [Example 70, Propyl 4-methyl-2-((2-((7-(5-methyl-1,2,4-oxadiazol-3-yl)isoquinolin-1-yl)amino)ethyl)carbamoyl)thiazole-5-carboxylate] gave an IC50 of 11 nM. In the case of `CCCOC(=O)c1sc(C(=O)N(C)CCNc2nccc3ccc(-c4noc(C)n4)cc23)nc1C` [Example 74, Propyl 4-methyl-2-(methyl(2-((7-(5-methyl-1,2,4-oxadiazol-3-yl)isoquinolin-1-yl)amino)ethyl)carbamoyl)thiazole-5-carboxylate], the IC50 is reported as 272 nM. `CCCOC(=O)c1sc(NC(=O)C[C@H](CCCNC)Nc2nccc3ccc(-c4noc(C)n4)cc23)nc1C` [Example 172, Propyl (S)-4-methyl-2-(3-((7-(5-methyl-1,2,4-oxadiazol-3-yl)isoquinolin-1-yl)amino)-6-(methylamino)hexanamido)thiazole-5-carboxylate] gave an IC50 of 6 nM. `CCCOC(=O)c1cc(NC(=O)CCNc2nccc3ccc(-c4noc(C)n4)cc23)nn1C` [Example 131, Propyl-1-methyl-3-(3-((7-(5-methyl-1,2,4-oxadiazol-3-yl)isoquinolin-1-yl)amino)propanamido)-1 H-pyrazole-5-carboxylate formate] gave an IC50 of 16 nM. For `CCOC(=O)c1cc(NC(=O)CCNc2nccc3ccc(-c4noc(C)n4)cc23)n[nH]1` [Example 135, Ethyl-3-(3-((7-(5-methyl-1,2,4-oxadiazol-3-yl)isoquinolin-1-yl)amino)propanamido)-1 H-pyrazole-5-carboxylate], the IC50 was 428 nM. In the case of `Cc1nc(-c2cccc(C(=O)NCCC(=O)Nc3nc(C)c(C(=O)OCCCCN)s3)c2)no1` [Example 125, 4-aminobutyl 4-methyl-2-(3-(3-(5-methyl-1,2,4-oxadiazol-3-yl)benzamido)propanamido)thiazole-5-carboxylate hydrochloride], the IC50 is reported as 5590 nM. `CCCOC(=O)c1cc(C(=O)N2CC[C@H](Nc3nccc4ccc(-c5noc(C)n5)cc34)C2)nn1C` [Example 245, Propyl (S)-1-methyl-3-(3-((7-(5-methyl-1,2,4-oxadiazol-3-yl)isoquinolin-1-yl)amino)pyrrolidine-1-carbonyl)-1 H-pyrazole-5-carboxylate] showed an IC50 of 7470 nM. For `CCCOC(=O)c1sc(C(=O)N2CC[C@@H](Nc3nccc4ccc(-c5noc(C)n5)cc34)C2)nc1C` [Example 244, Propyl (R)-4-methyl-2-(3-((7-(5-methyl-1,2,4-oxadiazol-3-yl)isoquinolin-1-yl)amino)pyrrolidine-1-carbonyl)thiazole-5-carboxylate], the IC50 was 608 nM. With `CCCOC(=O)c1sc(NC(=O)[C@H](CNC(=O)c2cccc(-c3noc(C)n3)c2)N(C)C)nc1C` [Example 175, Propyl (S)-2-(2-(dimethylamino)-3-(3-(5-methyl-1,2,4-oxadiazol-3-yl)benzamido)propanamido)-4-methylthiazole-5-carboxylate formate] the IC50 was 335 nM. `Cc1nnn(-c2cccc(C(=O)NCCC(=O)Nc3nc(C)c(C(C)(C)C)s3)c2)n1` [Example 59, N-(3-((5-(tert-butyl)-4-methylthiazol-2-yl)amino)-3-oxopropyl)-3-(5-methyl-2H-tetrazol-2-yl)benzamide] was tested, and the IC50 was 278 nM. With `Cc1nc(-c2cccc(C(=O)N[C@H](CC#N)CC(=O)Nc3nc(C)c(C(=O)OC(C)C)s3)c2)no1` [Example 196, Propan-2-yl 2-[(3R)-4-cyano-3-{[3-(5-methyl-1,2,4-oxadiazol-3-yl)phenyl]form-amido}butanamido]-4-methyl-1,3-thiazole-5-carboxylate] the IC50 was 167 nM. `Cc1ccc2ccnc(NC[C@@H](O)C(=O)Nc3nc(C)c(C(=O)OC(C)(C)C)s3)c2c1` [Example 184, tert-Butyl (R)-2-(2-hydroxy-3-((7-methylisoquinolin-1-yl)amino)propanamido)-4-methylthiazole-5-carboxylate] showed an IC50 of 34 nM. `Cc1nc(-c2ccc3ccnc(NCCC(=O)Nc4cn(C(=O)OC(C)C)c(C)n4)c3c2)no1` [Example 258, Propan-2-yl 2-methyl-4-(3-{[7-(5-methyl-1,2,4-oxadiazol-3-yl)isoquinolin-1-yl]amino}propanamido)-1 H-imidazole-1-carboxylate] gave an IC50 of 207 nM. With `CCOC(=O)c1sc(NC(=O)CC(C)(C)NC(=O)c2cccc(-c3noc(C)n3)c2)nc1C` [Example 65, Ethyl 4-methyl-2-(3-methyl-3-(3-(5-methyl-1,2,4-oxadiazol-3-yl)benzamido)butanamido)thiazole-5-carboxylate] the IC50 was 4100 nM. `CCCOC(=O)n1cc(NC(=O)[C@H](O)CNC(=O)c2cccc(-c3cnn(C)c3)c2)nc1C` [Example 268] showed an IC50 of 950 nM. Molecule `Cc1nc(NC(=O)CCNC(=O)c2cccc(-c3nnn(C)n3)c2)sc1C(=O)OC(C)C` [Example 40, Isopropyl 4-methyl-2-[3-[[3-(2-methyltetrazol-5-yl)benzoyl]amino]propanoylamino]thiazole-5-carboxylate] has an IC50 of 10 nM. Molecule `CCOC(=O)c1sc(NC(=O)CCNC(=O)c2cc(CC)cc(C(=O)OC)c2)nc1C` [Example 19, Ethyl 2-[3-[(3-ethyl-5-methoxycarbonyl-benzoyl)amino]-propanoylamino]-4-methyl-thiazole-5-carboxylate] has an IC50 of 17 nM. In the case of `Cc1nc(-c2cccc(C(=O)N[C@H](CC#N)CC(=O)Nc3nc(C)c(C(=O)OC(C)(C)C)s3)c2)no1` [Example 194, tert-Butyl 2-[(3R)-4-cyano-3-{[3-(5-methyl-1,2,4-oxadiazol-3-yl)phenyl]form-amido}butanamido]-4-methyl-1,3-thiazole-5-carboxylate], the IC50 is reported as 96 nM. Work on `CCOC(=O)c1sc(NC(=O)CCNC(=O)c2cccc(-c3noc(C)n3)c2)nc1CC` [Example 92, Ethyl 4-ethyl-2-[3-[[3-(5-methyl-1,2,4-oxadiazol-3-yl)benzoyl]amino]propanoylamino]thiazole-5-carboxylate] yielded an IC50 of 45 nM. `Cc1nc(-c2cc(Cl)cc(C(=O)NCCC(=O)Nc3nc(C)c(C(C)(C)C)s3)c2)no1` [Example 31, N-[3-[(5-tert-butyl-4-methyl-thiazol-2-yl)amino]-3-oxo-propyl]-3-chloro-5-(5-methyl-1,2,4-oxadiazol-3-yl)benzamide] showed an IC50 of 191 nM.
